Assay results from patent US10478485B2, “Methods and compositions to prevent or treat bacterial infections” (priority 2015, dated 2019).
In brackets after ≈: the same amount, converted by molar mass.

Legend:
[1] = system: Acinetobacter baumannii; test: SIgA breakdown / secretory component liberation by Acinetobacter baumannii (Western blot); type: cell-based; conditions: for inhibition of SIgA reduction and SC liberation: 2 hours after incubation
Protocol: Acinetobacter baumannii was incubated with 50 μg/mL SIgA to examine breakdown of the immunoglobulin. Breakdown of SIgA by A. baumannii was observed by liberation of secretory component from dimeric IgA. Goat anti-human secretory component (free and bound) antibody was used to monitor this occurrence though Western blot. A mixture of A. baumannii strain Ci79 was prepared in three concentrations −10^7, 10^6, and 10^5 CFU/mL—to determine whether SIgA breakdown was dose dependent with respect to bacterial concentration FIG. 1A. […] Next, two competitive inhibitors of reductase enzymes targeting the thioredoxin fold (-C-X-X-C-) motif typically found in thiol-reductase enzymes (thioredoxin, glutathione, thioredoxin reductase, etc) were identified. The first, dithionitrobenzoic acid (Ellman's reagent) is often used as a colorimetric substrate to monitor thioredoxin activity as it produces a bright yellow color upon cleavage of the disulfide bond within the molecule. The second is PX-12. […] (Error bars represent ±SEM in all graphs; statistical differences determined by ANOVA with Dunnett correction; * significance p<0.01; ** p<0.001).

[2] = system: multi-drug resistant (MDR) Acinetobacter baumannii clinical isolates; test: Minimum inhibitory concentration (MIC) determination; type: cell-based
Protocol: PX-12 concentrations used in these experiments approximated the concentration reported “well tolerated” by mice (˜500 μg/mouse; 500 μg/mL for this experiment). […] Furthermore, this concentration was also bactericidal leading us to believe it may potentially be useful as a new antimicrobial compound for treating MDR Acinetobacter baumannii. (Bacterial concentrations used in presented studies ˜100× higher than recommended by CLSI standards)

[3] = system: A. baumannii strain Ci79; test: Bacterial adherence to mouse intestinal sections; type: cell-based, Acinetobacter baumannii
Protocol: Intestinal sections were cut down one side to expose the inner lumen of the intestine and individually placed in suspensions of A. baumannii strain Ci79 (10^7 CFU/mL). The sections were incubated in this mixture for 30 minutes, washed twice in 250 volumes of sterile PBS and soaked in 500 volumes of PBS (volume of section ˜50-100 μL) for five minutes. The remaining bound bacteria were enumerated through homogenization of each section into single cell suspensions in 10 mL sterile PBS followed by dilution plating.

[4] = cited from earlier work

O=C(O)c1cc(SSc2ccc([N+](=O)[O-])c(C(=O)O)c2)ccc1[N+](=O)[O-] [Ellman's reagent, dithionitrobenzoic acid]
SIgA breakdown by Acinetobacter baumannii after addition of inhibitor [1]: significantly reduced | inhibition of SIgA reduction and SC liberation ([1]; 1 mM): completely ablated | inhibition of SIgA reduction at 24 hours ([1]; 24 hours): inhibition was still evident

CCC(C)SSc1ncc[nH]1 (stereo not shown) [PX-12, 1-methylpropyl 2-imidazolyl disulfide]
bacterial pellet size ([2]; 500 μg/mL): visible decrease in bacterial pellet size | MIC ([2]; Acinetobacter baumannii): 31.2 µg/mL (≈ 166 µM) | bactericidal effect ([2]; at 31.25 μg/mL): bactericidal | bactericidal activity (low MIC combined with low MBC) ([2]; repeat MIC to CLSI standards, ~5×10^5 CFU/mL, 64 to 0.5 μg/mL): bactericidal activity | time after which inhibition is overcome by the bacteria [1]: about 12 hours | inhibition of SIgA reduction and SC liberation ([1]; 15 μg/mL): completely ablated | SIgA breakdown by Acinetobacter baumannii ([1]; 18 μg/mL, up to 2 hours following treatment): significantly reduced | bacterial adherence to intestinal sections ([3]; 18 μg/mL, sections from WT C57BL/6 mice): significantly inhibits | reduction of bacterial attachment ([3]; WT intestinal sections as 100% control, Ci79 10^7 CFU/mL, 30 minutes): ~40% | concentration reported well tolerated by mice [4]: ~500 μg/mouse
